tested on: Human Ito cells (LI90); experiment: Test for inhibition of collagen synthesis (3H proline labeling, hTGF β-1 treated cells); type: cell-based; details: cultured with test compound in MEM containing 10 PM hTGF β-1 and 2% PDS for 16 hours, 3H proline labeling 24 hours, read-out: IC50 (μM), concentration at which the collagen synthesis is inhibited by 50% (T/C = 0.5)
Description: The pyridine derivatives (test compounds) obtained in Examples 1-2, 9-10, 21, 25, 29, 33-37, 39, 42, 44 and 46 were subjected to the following collagen synthesis test.
Test for Inhibition of Collagen Synthesis
Plasma obtained by centrifugation of rabbit blood was centrifuged again to remove platelets, and dialysis of the resulting supernatant was carried out against a Phosphate Buffered Saline (PBS) containing 0.01% (w/v) calcium chloride and 0.01% (w/v) magnesium chloride. Then, centrifugation was carried out to remove the residue and the resulting supernatant was immobilized at 56° C. for 30 minutes. The immobilized supernatant was sterilized by using a filter (0.22 μm) to prepare Plasma Derived Serum (PDS).
Human Ito cells (LI90) were plated in DULBECCO's modified eagle medium (DMEM) containing 10% fetal bovine serum and cultured in an incubator in the presence of 5% carbon dioxide (CO2) for 24 hours at 37° C., and then washed with PBS and cultured in Eagle's minimum essential medium (MEM) containing 2% PDS for additional 3 days. The cultured cells were washed with PBS and cultured together with the test compounds in MEM containing 10 PM hTGF (transforming growth factor) β-1 (containing 2% PDS based on the total amount of MEM) for 16 hours. Then, the cultured L190 was washed with PBS and RI (radioisotope) labeling was carried out in MEM containing ^3H proline as a radioactive labeled compound and 0.25 mM ascorbic acid for 24 hours. This cultured supernatant was precipitated by using trichloroacetic acid (TCA), and then the radioactivity in an […] fraction was measured and the resulting measured value was taken as collagen synthesis activity.
By comparing the radioactivity in the cultured supernatant containing the test compound with the radioactivity in the cultured supernatant containing no test compound (control), the collagen synthesis inhibition activity (T/C) was calculated by the following equation:
T/C=(radioactivity in cultured supernatant containing test compound)/(radioactivity in cultured supernatant of control).
IC50 was determined as the concentration (μM) at which the collagen systhesis can be inhibited by 50% (concentration of the test compound wherein C50=T/C corresponds to 0.5).

SMILES | IC50
O=C(Nc1ccc(C(F)(F)F)cc1)c1ccc(Oc2cccc3c2CCC3=O)nc1 [Example 39, 6-[(1-oxo-2,3-dihydro-1H-inden-4-yl)oxy]-N3-[4-(trifluoromethyl)phenyl]nicotinamide] | 0.55 µM
O=C(Nc1ccc(Cl)c(Cl)c1)c1ccc(Oc2cccc3c2CCCC3=O)nc1 [Example 42, N3-(3,4-dichlorophenyl)-6-[(5-oxo-5,6,7,8-tetrahydro-1-naphthalenyl)oxy]nicotinamide] | 2.29 µM
CC(O)c1ccc(Oc2ccc(NC(=O)c3ccc(Cl)c(Cl)c3)cn2)cc1 (stereo not shown) [Example 36, 3,4-dichloro-N1-{6-[4-(1-hydroxyethyl)phenoxy]-3-pyridinyl}benzamide] | 3.72 µM
O=C(Nc1ccc(Oc2cccc3c2CC=C3)nc1)c1ccc(Cl)c(Cl)c1 [Example 35, 3,4-dichloro-N1-{6-[(1H-inden-7-yl)oxy]-3-pyridinyl}benzamide] | 2.43 µM
O=C(Nc1ccc(Cl)c(Cl)c1)c1ccc(Oc2cccc3c2CCC3=O)nc1 [Example 37, N3-(3,4-dichlorophenyl)-6-[(1-oxo-2,3-dihydro-1H-inden-4-yl)oxy]nicotinamide] | 2.52 µM
CC(=O)c1ccc(Oc2ccc(C(=O)Nc3ccc(C(F)(F)F)cc3)cn2)cc1 [Example 44, 6-(4-acetylphenoxy)-N3-[4-(trifluoromethyl)phenyl]nicotinamide] | 0.92 µM
CC(=O)c1ccc(Oc2ccc(NC(=O)c3ccc(Cl)c(Cl)c3)cn2)cc1C [Example 21, N1-[6-(4-acetyl-3-methylphenoxy)-3-pyridinyl]-3,4-dichlorobenzamide] | 2.92 µM
O=C(Nc1ccc(Oc2cccc3c2CCC3=O)nc1)c1ccc(C(F)(F)F)cc1 [Example 2, N1-{6-[(1-oxo-2,3-dihydro-1H-inden-4-yl)oxy]-3-pyridinyl}-4-(trifluoromethyl)benzamide] | 2.9 µM
CC(=O)OC1=CCc2c(Oc3ccc(NC(=O)c4ccc(Cl)c(Cl)c4)cn3)cccc21 [Example 46, N1-{6-[(3-acetoxy-1H-inden-7-yl)oxy]-3-pyridinyl}-3,4-dichlorobenzamide] | 1.12 µM

The remaining molecules from weak to strong by IC50, led by results:

IC50 | SMILES
3.88 µM | CC1(c2ccc(Oc3ccc(NC(=O)c4ccc(Cl)c(Cl)c4)cn3)cc2)OCCO1 [Example 33, 3,4-dichloro-N1-{6-[4-(2-methyl-1,3-dioxolane-2-yl)phenoxy]-3-pyridinyl}benzamide]
2.7 µM | O=C(Nc1ccc(Oc2cccc3c2CCC3)nc1)c1ccc(Cl)c(Cl)c1 [Example 25, 3,4-dichloro-N1-(6-[(2,3-dihydro-1H-inden-4-yl)oxy]-3-pyridinyl}benzamide]
2.6 µM | O=C(Nc1ccc(Oc2ccc3c(c2)C(=O)CCCC3)nc1)c1ccc(Cl)c(Cl)c1 [Example 10]
2.34 µM | O=C(Nc1ccc(Oc2cccc3c2CCCC3=O)nc1)c1ccc(Cl)c(Cl)c1 [Example 9, 3,4-dichloro-N1-{6-[(5-oxo-5,6,7,8-tetrahydro-1-naphthalenyl)oxy]-3-pyridinyl}benzamide]
2.15 µM | O=C(Nc1ccc(Oc2cccc3c2CCC3O)nc1)c1ccc(Cl)c(Cl)c1 (stereo not shown) [Example 34, 3,4-dichloro-N1-{6-[(1-hydroxy-2,3-dihydro-1H-inden-4-yl)oxy]-3-pyridinyl}benzamide]
2.14 µM | O=C(Nc1ccc(Oc2cccc3c2CCC3=O)nc1)c1ccc(Cl)c(Cl)c1 [Example 1, 3,4-dichloro-N1-{6-[(1-oxo-2,3-dihydro-1H-inden-4-yl)oxy]-3-pyridinyl}benzamide]
1.58 µM | Cc1cccc(Oc2ccc(NC(=O)c3ccc(Cl)c(Cl)c3)cn2)c1C [Example 29, 3,4-dichloro-N1-[6-(2,3-dimethylphenoxy)-3-pyridinyl]benzamide]

Reference: patent US6511995B1, “Pyridine derivative and pharmaceutical containing the same” (Otsuka Pharmaceutical Co., Ltd., priority 1998, dated 2003)
